From patent publication US10732174B2, “Three dimensional tissues for high-throughput assays” (INVIVOSCIENCES, INC., priority 2008, dated 2020) come the findings set out here.

Entries after “also recorded” stand apart in the source; their conditions may differ. Like-named read-outs stand apart in the source and are kept apart here.

In general, EC50 refers to the concentration needed to bring the measured effect to its halfway point.

Data set [1] deals with F-actin in HTCs of REF-52 cells. Description: F-actin content of HTCs, Alexa-phalloidin, plate reader. Type of data set: cell-based, rat. The following applies: HTC treated 24 hours. From the text: FIG. 5A-FIG. 5W. FIG. 5A is a photograph of The Palpator™. The system includes an isometric force transducer (a), probe baths (b), and a hydrogel tissue construct (HTC) stage (c) on a temperature regulator plate (d). FIG. 5B is a photograph showing the x-y-z motion robotic arm which positions the force transducer with attached probe above the HTCs and lowers the probe onto the tissue for force measurement. FIG. 5C is a schematic of the robotic arm with attached force transducer and probe. FIG. 5D is a photograph of the probe positioned 1 mm above the mid-plane of a HTC (a) and then lowered until it first touches (b) and then stretches (c) the tissue. FIG. 5E is a graph showing representative forces recorded during HTC indentation. Arrows a, b, and c show force measurements associated with probe positions shown in (D). […] HTCs were preconditioned, then treated with varying concentrations of the four drugs as indicated. Forces were measured at 3 (f) and 24 hr (g). Force measurements were expressed relative to control, medium treated, HTCs (Fc). […] HTCs treated with drugs for 24 hours were fixed and labeled with Alexa 568 conjugated phalloidin. Fluorescence intensity was read on a plate reader and plotted relative to control, media treated, HTCs (Ic). […] At 3 hr (i-m) and 24 hr (n-r, s-w) post treatment, representative monolayers were fixed and stained with Alexa 568 conjugated phalloidin and DAPI. […] Note the larger scale bar in (g) and (l). Images were captured on a Leica SP5 confocal microscope using a water-immersion 63× objective, scale bar=50 μm.
Tissue force is maintained through the integrity of the cellular cytoskeleton, especially actin and myosin. To quantify amount of F (filamentous)-actin in the HTCs treated with the compounds, the HTCs were stained with Alexa […] conjugated phalloidin. […] This is in agreement with our previous report that CD mediated reduction in tissue force was due to the loss of intact F-actin. However, force reductions by H1152 and DNP were not related to the loss of F-actin. […] By 24 hours, short F-actins were re-distributed within less-spread (FIG. 5O) and binuclear (FIG. 5T) cells.

Data set [2] has as its system mitochondrial membrane potential in HTCs of REF-52 cells. Description: HTC TMRE labeling, mitochondrial potential. It counts as cell-based, rat. The conditions noted are these: for effect on mitochondrial potential, in words: HTC, TMRE; for EC50: Rattus norvegicus, read-out: EC50 of TMRE signal reduction (MMP uncoupling). As to the method:
The ethyl ester of tetramethylrhodamine (TMRE, T-669, Invitrogen, Carlsbad, Calif.) was used to quantify the mitochondrial potential of the HTCs. HTCs were incubated in 100 nM TMRE for 30 min and then in phenol red free 10% FBS DMEM for 60 min. Phenol red free medium was used to prevent interference with TMRE fluorescence reading. Following labeling, HTCs were preconditioned with three stretches and then prior to background force measurement. HTC TMRE signal was then read on a Synergy HT plate reader (Biotek Instruments, Winooski, Vt.). A custom made adapter plate was used to position the tissue molds on the plate-holding rack of the plate reader. Fluorescence signal was read from the bottom using the 543/590 excitation/emission filter set and a gain setting of 50. TMRE fluorescence intensity was also read following each force measurement at predetermined time points after drug treatments.
TMRE is cationic and accumulates in the mitochondria as a function of MMP. […] More detailed investigation of DNP's effect on TMRE accumulation using confocal microscopy improved signal detection in both monolayers and HTCs (FIG. 6C and FIG. 6D).

The next data set deals with HTCs of REF-52 cells. The conditions noted are these: 24 hours. As to the method: 3-(4,5-dimethylthiazol-2-yl)-2,5-diphenyltetrazolium (MTT, M-6494, Invitrogen) was used to quantify cell viability in the HTCs. At predetermined times following drug exposure, MTT was added to each well to achieve 0.5 mg/ml. MTT was left in the wells for 2 hr and then removed. The formazan dye that forms in the cells were then suspended in 500 μl of isopropanol (S77795, Fisher Scientific) containing 0.1 N hydrochloric acid. Two hundred microliters of the formazan solution is then put into a 96-well plate well and read on the Synergy HT plate reader. Absorbance at 570 and 650 nm were recorded and the difference (A570-A650) was used as the absorbance intensity of the formazan.
All chemicals are from Sigma (Sigma-Alrich, St. Louis, Mo.) unless otherwise noted. […] DNP was diluted to 1 M in DMSO and then to 100, 10, and 1 mM in -F/G/P DMEM. Following HTC preconditioning and background force (i.e. pre-drug) measurement, 50 μl of the appropriate drug dilutions were added to each well to achieve the desired treatment concentration. Fifty microliters of -F/G/P DMEM was added to the control wells. Upon drug addition, medium in the wells was mixed by pipetting four times.
Finally to measure the compounds' effects on cellular viability, the assay using 3-(4,5-Dimethylthiazol-2-yl)-2,5-diphenyltetrazolium bromide (MTT) was performed. In cells, the yellow MTT is converted to a purple colored formazan by succinate dehydrogenase and this change can be quantified by light absorbance between 500-600 nm was quantitatively recorded using the plate reader.

The next data set deals with REF-52 cells. The following applies: for cytotoxicity signs in cell monolayers (confluency, nuclei, shrinkage): 24 hours; for F-actin morphology in cells, microscopy: REF monolayers, 3 hr and 24 hr. As for the experimental part:
REF-52 cells were plated on 35 mm culture dishes (50,000 cells) in 10% FBS medium (2 ml). Cells are incubated over night and then treated with compounds. […] Cells were incubated with drugs for 24 hours prior to fixing. To fix, treated cells were rinsed once with 2 ml of phosphate buffered saline (PBS, D5652) and then incubated in 1 ml of 4% paraformaldehyde (Sigma) solution (in PBS) for 30 min. Fixed cells are rinsed twice and then stored in 2 ml of PBS.
Fixed REF-52 cells were permeabilized by incubating in 1 ml of 0.1% Triton (BP151, Fisher Scientific) solution (in PBS) for 15 min. Permeabilized cells were rinsed twice with 1 ml TBST buffer and then blocked with 1 ml of 5% goat serum in TBST for 1 hour. One milliliter of 1:200 diluted Alexa 568 conjugated phalloidin (A12380, Invitrogen) in TBST with 2% goat serum was then added to the cells. This staining solution also contained 400 nM of DAPI (D9564). Cells were stained for 30 min and then rinsed twice with TBST. Labeled cells were mounted with Vectashield (Vector Laboratories, Burlingame, Calif.), covered with a cover slide and then sealed with nail polish. The plate was then inverted on to a Leica SP5 confocal microscope (Leica Microsystems, Bannockburn, Ill.) and imaged with 63× water immersion objective. Alexa 568 was excited using the 543 laser line and DAPI was excited using a MaiTai multi-photon laser.

Consider `O=[N+]([O-])c1ccc(O)c([N+](=O)[O-])c1` [DNP, 2,4-dinitrophenol], for which, in data set [1], the “F-actin content of HTCs (Alexa-phalloidin intensity)” value is recorded as “comparable to controls”. Moreover, the “reduction in TMRE EC50 by 24 hours treatment” value in data set [2] (24 hr vs 3 hr) amounted to 3.6 fold. The “effect on mitochondrial potential, in words” value in data set [2] was “dose-dependently uncoupled HTC mitochondrial potential; also recorded: extensive uncoupling effect”. In addition, the EC50 in data set [2] (REF52, 3 h) was around 340 µM. For the same compound, the EC50 in data set [2] (REF52, 24 h) was around 95 µM. In addition, the “effect on HTC viability / MTT signal, in words” value in the data set on HTCs of REF-52 cells was “did not affect MTT signal”. Moreover, in the data set with REF-52 cells, the “cytotoxicity signs in cell monolayers (confluency, nuclei, shrinkage)” value is “less than that of control” and the “F-actin morphology in cells, microscopy” value is “limited to no effects; also recorded: did not dramatically affect F-actin morphology”.
`C=C(C)[C@H]1Cc2c(ccc3c2O[C@@H]2COc4cc(OC)c(OC)cc4[C@@H]2C3=O)O1` [ROT, rotenone]: the “F-actin content of HTCs (Alexa-phalloidin intensity)” value in data set [1] is recorded as “inconclusive”. For the same compound, the “effect on mitochondrial potential, in words” value in data set [2] is on record as “moderate negative impact”. Further, the “reduction of MTT signal” value in the data set with HTCs of REF-52 cells (10 μM) is given as 40%. Also, in the data set with REF-52 cells, the “cytotoxicity signs in cell monolayers (confluency, nuclei, shrinkage)” value was “cytotoxicity was evident; also recorded: less than that of control; also recorded: Noticeable nuclear fragmentation” and the “F-actin morphology in cells, microscopy” value was “limited to no effects; also recorded: did not dramatically affect F-actin morphology”.
